# Source: EP4274570B1, “ACTIVATORS OF THE BMP/SMAD AXIS FOR USE IN TREATING AND/OR PREVENTING MUSCLE ATROPHY” (Università Degli Studi Di Torino, priority 2021, dated 2022)
# Key:
# tibialis anterior = details: mice treated for 9 days; cited from earlier work
# C2C12 myotubes [1] = assay: Protein ubiquitination flow after proteasome inhibition (MG132) in C2C12 myotubes; assay type: cell-based, murine; details: FK506 1µg/mL plus Activin A 1ng/mL, with and without MG132 1µM, 1h
# Experimental: (§1) The myotubes were treated with 10% C26 conditioned medium (C26 CM (9)) or Activin A (1ng/mL R&D # 338-AC), FK506 (1µg/mL Cayman Chemical, #10007965), BMP6 (1ng/mL R&D Systems, 6325-BM), cyclosporine A (1µM Tocris Biosciences #1101), DMH1 (5µM CAS No 1206711-16-1) or with DMEM/2%HS (CTR) differentiation medium for 24h to measure their diameter. For the signaling experiments, two hours prior to treatment, the DMEM differentiation medium without serum was changed, followed by 1h of treatment with FK506 (1 µg/mL) or BMP6 (30ng/mL). The protein ubiquitination flow was measured by treating in C2C12 myotubes with FK506 1µg/mL, Activin A 1ng/mL (ACTA), and the combination of the two, with and without MG132 proteasome inhibitor (Senta Cruz Biotechnology, SC-351846), 1µM for 1h.
# (§2) C2C12 myotubes were lysed in RIPA lysis buffer (150mM NaCl, 50mM Tris-HCl, 0.5% sodium deoxycholate, 1.0% Triton X-100, 0.1% SDS, and 1mM EDTA) with protease and phosphatase inhibitors (Roche, #0490837001, #11697498001). The protein concentration was determined using the BCA assay (Thermo Fisher Scientific). 15µg of proteins from cell lysates were loaded for performing SDS-PAGE, then transferred onto PVDF membrane for immunoblotting analysis. The primary antibodies used are: SMAD1 (Cell Signaling, #9743), P-SMAD1/5 (Cell Signaling, #13820T), vinculin (Cell Signaling #4650), ubiquitin (Abcam, #7780).
# [2] = system: pGL3-BMP responsive element (BRE)-Luc; assay: Luciferase assay with pGL3-BMP responsive element (BRE)-Luc reporter in C2C12 myoblasts; assay type: cell-based, murine; details: FK506 1µg/mL, 5h, compared with BMP6 1ng/mL
# Experimental: C2C12 myoblasts were transfected with the pGL3-BMP responsive element (BRE)-Luc plasmid (Addgene #45126) to measure the promoter activation by the SMAD1/5/8 proteins. The cells were treated with FK506 (1µg/mL) or BMP6 (1ng/mL) 15h posttransfection. The luminescence was measured using Dual-Luciferase Reporter Assay System (Promega) after 5h of treatment according to the manufacturer's instructions.
# immune populations = assay: FACS of immune populations in blood, spleens and tumors of C26 mice; assay type: in vivo; details: FK506 0.02 mg/Kg daily oral
# Experimental: The blood was extracted and incubated with erythrocyte lysis buffer for 10 minutes at room temperature. After washing with PBS, the cells were collected, incubated with Fc-receptor blocker (anti-CD16/CD32 antibody, BD Bioscience #101302) and stained for 30 minutes at 4°C with the antibodies.
# The primary tumors were extracted, crushed, and digested with collagenase IV (1mg/mL) (Sigma Aldrich #C4-28) in RPMI-1640 at 37°C for 1h. After washing the tissues with RPMI-1640/10% FBS, the suspension was passed through a 70-µm pore filter, centrifuged at 1400rpm for 10 minutes and incubated with the erythrocyte lysis buffer (155 mM NH4Cl, 15.8 mM Na2CO3, 1 mM EDTA, pH 7.3) for 10 minutes at room temperature. After washing with RPMI-1640/10% FBS, 1 million cells were resuspended in PBS, treated with Fc-receptor blocker (anti-CD16/CD32 antibody, BD Bioscience #101302) and stained for 30 minutes at 4°C with the antibodies.
# C2C12 myotubes [3] = assay: Measurement of C2C12 myotube diameters; assay type: cell-based, murine; details: for C26 CM-induced atrophy (myotube diameter): 10% C26 conditioned medium, FK506 1µg/mL or siFKBP12 transfection; for hypertrophy (myotube diameter): BMP6 1ng/mL as positive control
# Experimental: When the confluence of 80-90% is reached, they are differentiated into myotubes in DMEM/2% HS medium for 4 days.
# For the signaling experiments, two hours prior to treatment, the DMEM differentiation medium without serum was changed, followed by 1h of treatment with FK506 (1 µg/mL) or BMP6 (30ng/mL).
# The myotubes were analyzed 48h after transfection to establish the diameters and lysates for RNA extraction.
# Photographs of the myotubes were taken using 20X magnification bright field microscopy (Zeiss) and their diameter was measured using FIJI software.
# Balb C mice = assay: Hypertrophy experiment in Balb C mice without tumor, oral treatment; assay type: in vivo
# Experimental: (§3) FK506 (Cayman Chemical, #10007965) was dissolved in DMSO (5mg/mL) and then diluted in a 5% glucose and water solution for oral administration in order to reach the final concentration of 0.02mg/kg. All the mice were subjected to one day of treatment, prior to inoculation of colon-26 (C26) adenocarcinoma cells into the right flank of three-month-old Balb C females (Charles River #028) (0.7x10^6 cells/mouse). All the mice were treated daily with FK506 (0.02 mg/Kg) or 5% glucose buffer DMSO vehicle.
# (§4) The gastrocnemii, tumors, and subcutaneous and inguinal adipose tissue were isolated, weighed, and normalized for the tibia length of each mouse.
# 4-month-old Balb C females were treated orally every day for 4 weeks (5 days per week), with 0.02mg/Kg/day FK506 in 5% glucose solution or with vehicle (CTR). The maximum strength was measured weekly with the Grip Strength Test.
# SMAD1/5 = assay: Western blot of SMAD1/5 phosphorylation in C2C12 myotubes; assay type: cell-based, murine; details: FK506 1µg/mL
# Experimental: as §1, §2
# [4] = system: BMP-SMAD1/5/8 signaling pathway; details: hepatocytes; cited from earlier work
# [5] = system: Colon-26 (C26) murine tumor cachexia model; assay: Colon-26 (C26) tumor cachexia model, oral treatment; assay type: in vivo; details: C26 mice, FK506 0.02 mg/Kg daily oral
# Experimental: as §3
# Maximum muscle strength was measured on the day of inoculation (day 0) and the day of sacrifice (day 11) using the Grip Strength Test (Bioseb).
# as §4
# The fresh gastrocnemii were frozen in liquid nitrogen-cooled isopentane and stored at -80°C. 7µm cross-sections were performed using a cryostat. Immunofluorescence was performed by securing the tissues in 4% PFA, blocking with […] in PBS before incubating with the primary antibody for laminin (sc-59854), and with the secondaries (ALEXA488) and DAPI (Abcam 228549). The photographs were taken with a fluorescence microscope to evaluate the cross-sectional area of the fibers.
# The total RNA from the frozen tissues was extracted with TRIzol reagent (Invitrogen) following the manufacturer's instructions. 0.5-1µg of total RNA were retrotranscribed using High Capacity cDNA Reverse Transcriptase kit (Applied Biosystems). The cDNA was analyzed with Real Time Quantitative PCR (ABI PRISM 7900HT FAST Real-Time PCR system, Applied Biosystems) using Luna Universal Probe qPCR master mix (Nebb) and Universal Probe Library system (Roche Applied Science). The relative mRNA levels were calculated using the 2-ΔΔCT method and normalizing for the GAPDH levels. The following primers were used: Atrogin1 F: 5'-[…]-3' (SEQ ID No. 1), R: 5' […]-3' (SEQ ID No. 2); Murf1 F: 5'[…]-3' (SEQ ID No. 3), R: 5'-tcgtcttcgtgttccttgc-3' (SEQ ID No. 4); Musa1 F: 5'-gagaagccagggtttgagc-3' (SEQ ID No. 5), R: 5'-[…]-3' (SEQ ID No. 6); Cathepsin L F: 5'-[…]-3' (SEQ ID No. 7), R: 5'-[…]-3' (SEQ ID No. 8); FKBP12 F: 5'-atgggagtgcaggtggag-3' (SEQ ID No. 9), R: 5'-[…]-3' (SEQ ID No. 10). GAPDH F: 5'-[…]-3' (SEQ ID No. 11), R: 5'-[…]-3' (SEQ ID No. 12).
# [6] = system: post-transplant diabetes mellitus rats; details: 1 mg/kg/d; cited from earlier work
smiles,measurement,setting,value
c1ccc2c(-c3cnn4cc(-c5ccc(N6CCNCC6)cc5)cnc34)ccnc2c1 [LDN-193189],atrophy in the myofibers of the tibialis anterior,tibialis anterior,21%
same,baseline phosphorylation levels of Smad1/5/8,tibialis anterior,reduction in baseline phosphorylation levels of Smad1/5/8
C=CC[C@@H]1/C=C(\C)C[C@H](C)C[C@H](OC)[C@H]2O[C@@](O)(C(=O)C(=O)N3CCCC[C@H]3C(=O)O[C@H](/C(C)=C/[C@@H]3CC[C@@H](O)[C@H](OC)C3)[C@H](C)[C@@H](O)CC1=O)[C@H](C)C[C@@H]2OC [tacrolimus],ACTA-induced increase in protein ubiquitination,C2C12 myotubes [1],completely reversed
same,BRE-Luc reporter activation,[2],capable of exceeding the BMP6 positive control in reporter activation
same,amount and state of activation of the main immune populations,immune populations,has no effect on these parameters
same,C26 CM-induced atrophy (myotube diameter),"C2C12 myotubes [3]; 24h, listed as FK506",capable of preventing C26 CM-induced atrophy
same,C26 CM-induced atrophy (myotube diameter),"C2C12 myotubes [3]; 24h, listed as Tacrolimus",capable of preventing
same,hypertrophy (myotube diameter),"C2C12 myotubes [3]; FK506 1µg/mL, 24h, listed as FK506",capable of inducing significant hypertrophy
same,hypertrophy (myotube diameter),"C2C12 myotubes [3]; FK506 1µg/mL, 24h, listed as Tacrolimus",induces levels of hypertrophy comparable to BMP6
same,ACTA-induced atrophy (myotube diameter),"C2C12 myotubes [3]; FK506 1µg/mL, Activin A 1ng/mL, 24h",capable of preventing
same,effect of tacrolimus on myotube diameter under ALK2 silencing,"C2C12 myotubes [3]; siALK2-transfected C2C12 myotubes, FK506 1µg/mL",nullifies the effect of tacrolimus
same,maximum muscle strength (Grip Strength test),"Balb C mice; 0.02mg/Kg/day oral, 4 weeks, day 29, versus vehicle (CTR)",significantly increases maximum muscle strength
same,muscle mass,"Balb C mice; oral non-immunosuppressive doses, 11 days",capable of increasing the mass of the quadriceps
same,phosphorylation levels of SMAD1/5,"SMAD1/5; 1h, without stimulation by any extracellular ligand",capable of increasing the phosphorylation levels of SMAD1/5
same,effect of tacrolimus on phosphorylation of the Smad1/5/8 proteins under ALK2 silencing,SMAD1/5; siALK2-transfected C2C12 myotubes,nullifies the effect of tacrolimus
same,phosphorylation of SMAD 1/5/8 proteins,[4],increasing the phosphorylation of SMAD 1/5/8 proteins
same,transcription of their epcidin target,[4],increasing
same,body weight loss,[5]; 11 days,capable of preventing
same,fat loss (subcutaneous and inguinal adipose tissue),[5]; 11 days,capable of preventing
same,weight of the tumor,[5]; at sacrifice,without altering the weight of the tumor
same,maximum muscle strength (Grip Strength test),[5]; end of the experiment (day 11),increased maximum muscle strength
same,"expression of atrogens (Atrogin 1, MuRF-1, Musa1, Cathepsin L mRNA) in the gastrocnemii",[5]; normalized for GAPDH,reduced expression of all the atrogens
same,muscle atrophy in terms of muscle fiber diameter,[5]; gastrocnemius cross-section,capable of preventing muscle atrophy
same,muscle atrophy in terms of skeletal muscle weight,[5]; gastrocnemius weight normalized for tibia length,capable of preventing muscle atrophy
same,muscle atrophy at high immunosuppressive doses,[6],induces muscle atrophy
CC(C)Oc1ccc(-c2cnc3c(-c4ccnc5ccccc45)cnn3c2)cc1 [DMH1],effect of DMH1 on tacrolimus-induced hypertrophy and protection from C26 CM-induced atrophy (myotube diameter),"C2C12 myotubes [3]; DMH1 5µM, FK506 1µg/mL, 10% C26 CM, 24h",nullifies both the hypertrophic effect of tacrolimus and the protection of C26 (C26 CM) tumor medium-induced atrophy
